Experimental data as given in patent US20130143840A1, “HEPARAN SULFATE REPLACEMENT THERAPY” (priority 2010, published 2013).
“Also recorded” adds a separate entry of the source.

Legend:
islet beta cells [1] = experiment: Hydrogen peroxide (ROS)-induced beta cell death after culture, Sytox green uptake; type: cell-based, mouse; conditions: for Resistance to H2O2 (ROS): then 30% H2O2 for 5 min; for ability to retain beta cell viability and induce ROS resistance (in words): summary of Table 3
heparanase = biological target: T1, heparanase (Homo sapiens, UniProt Q9Y251); experiment: Heparanase inhibitory activity (Freeman and Parish 1997 assay); type: biochemical
T1 sequence (Q9Y251 158-543 limits assumed): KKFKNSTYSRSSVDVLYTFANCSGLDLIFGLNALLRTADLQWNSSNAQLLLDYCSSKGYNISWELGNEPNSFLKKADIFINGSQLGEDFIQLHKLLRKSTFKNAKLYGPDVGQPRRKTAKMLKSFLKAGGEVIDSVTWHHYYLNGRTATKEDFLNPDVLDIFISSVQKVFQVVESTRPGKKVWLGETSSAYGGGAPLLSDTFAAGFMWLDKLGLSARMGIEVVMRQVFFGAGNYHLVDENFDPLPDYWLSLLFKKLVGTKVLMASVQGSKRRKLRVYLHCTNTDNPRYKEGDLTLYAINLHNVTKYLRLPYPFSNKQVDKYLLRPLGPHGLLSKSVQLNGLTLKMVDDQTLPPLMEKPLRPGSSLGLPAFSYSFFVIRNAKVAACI
T1 sequence (Q9Y251 36-109 limits assumed): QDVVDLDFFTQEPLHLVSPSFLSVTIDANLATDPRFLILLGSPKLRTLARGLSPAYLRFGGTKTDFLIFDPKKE

[2] = test system: isolated BALB/c islet beta cells; experiment: Culture-induced death of isolated islet beta cells, Sytox green uptake by flow cytometry; type: cell-based, mouse; conditions: for Viability (%): untreated control 25-30% viability
Text: (§1) Pancreatic islets were isolated from non-diabetic BALB/c mice and dissociated into a single cell suspension (>90% beta cells) by Dispase digestion. Following 2 days culture in standard tissue culture medium 62% of the beta cells were dead, based on uptake of the fluorescent DNA binding dye, Sytox green (FIG. 4, upper panels). […] In the presence of heparin the highly viable Calcein^+, PI^−population of beta cells was increased from 25% to 86%, the dead population. (Calcein^−, PI^+) reduced from 18% to 1% and the apoptotic population (Calcein^+, PI^+) improved from 52% to 6%. […] Table 1 provides a statistical analysis of the data showing that heparin, highly sulfated heparan sulfate (HS^hi) and PI-88 can protect mouse beta cells from culture-induced cell death.
(§2) The impact of heparin treatment on beta cell viability was also independent of the source of heparin (FIG. 8a) and, based on viable cell numbers, was not observed after 1 h but did occur after continuous culture with heparin for 1-2 days (FIG. 8b).

isolated islets = experiment: Heparan sulfate of islets isolated with free radical scavengers, Alcian blue staining; design: species or system mouse; conditions: combined: donors pretreated with BHA 120 mg/kg i.p. and islets isolated in presence of DMTU 50 mM
Text: Transplantation of pancreatic islets is a well established therapeutic approach for treating Type I diabetes in animals and patients. However, recovery of fully functional islets is crucial if successful transplantation is to occur, irrespective of the problems associated with the recipient's immune response against the allograft. Based on the data described herein, preservation of intra-islet heparan sulfate during islet isolation is an important factor in ensuring that normal islet function is retained. […] In fact, following isotransplantation intra-islet heparan sulfate was still depleted 3 days after transplantation but returned to normal levels 7 days post-transplant (FIG. 13). […] These observations indicate that a combination of heparan sulfate and free radical scavengers could be used to preserve beta cell heparan sulfate during islet isolation.

[3] = test system: isolated BALB/c islet beta cells; experiment: Beta cell viability by Calcein-AM / propidium iodide staining, flow cytometry; type: cell-based, mouse; conditions: 50 μg/ml, 2 days culture
Text: as §1

islet beta cells [4] = experiment: Insulin content of beta cells from islets isolated in the presence of heparin, flow cytometry; type: cell-based, mouse; conditions: heparin 50 μg/ml in the islet isolation medium
Description: This deficiency in intra-islet heparan sulfate persisted for at least 3 days after transplantation of the islets into histocompatible recipients, normal heparan sulfate levels only being regained 7 days post-transplantation (FIG. 13). Inclusion of heparin (50 μg/ml) in the islet isolation medium improved the insulin content of the islet beta cells 2-fold (FIG. 14).

islet beta cells [5] = experiment: Intracellular insulin content of cultured beta cells; type: cell-based, mouse; conditions: 50 μg/ml, 2 days culture
Description: Comparison of the ability of HS^hi (50 μg/ml) and undersulfated HS(HS^lo, 50 μg/ml) to protect beta cells from 2 day culture-induced cell death, as shown by Sytox green uptake (upper panels). Lower panels depict the intracellular insulin content (green histograms) of the different preparations of cultured islet cells. Serum control (red histograms) and islet cell autofluorescence (black histograms) are also shown. 85-88% of the cultured islet cells were insulin^+ beta cells.
as §2

[6] = 50 μg/ml, 2 days culture, Sytox green

Bis-lactobionic acid amide (C12 link)
protection from peroxide (ROS)-induced cell death / induction of ROS resistance (in words) (islet beta cells [1]; 50 μg/ml, 2 days culture): essentially unable to induce islet beta cells to become ROS resistance | Resistance to H2O2 (ROS) (islet beta cells [1]; 50 μg/ml, 2 days culture): − | heparanase inhibition (in words) (heparanase): strong to very strong heparanase inhibitors

Chondroitin sulfate D
Viability (%) [2, 6]: 32% | Resistance to H2O2 (ROS) (islet beta cells [1]; 50 μg/ml, 2 days culture): − | Hpse inhibition (heparanase): ±

O-α-D-Glucopyranosyl-{(1→4)—O-α-D-glucopyranosyl}4-(1→4)-D-glucopyranose sulfate [Maltohexaose sulfate]
ability to retain beta cell viability and induce ROS resistance (in words) (islet beta cells [1]; 50 μg/ml, 2 days culture): induced high beta cell viability and ROS resistance | Resistance to H2O2 (ROS) (islet beta cells [1]; 50 μg/ml, 2 days culture): ++++ | Hpse inhibition (heparanase): +++

Chitosan
Viability (%) [2, 6]: 30% | Resistance to H2O2 (ROS) (islet beta cells [1]; 50 μg/ml, 2 days culture): − | Hpse inhibition (heparanase): −

Dextran sulfate
ability to retain beta cell viability and induce ROS resistance (in words) (islet beta cells [1]; 50 μg/ml, 2 days culture): induced high beta cell viability and ROS resistance | Resistance to H2O2 (ROS) (islet beta cells [1]; 50 μg/ml, 2 days culture): ++++ | Hpse inhibition (heparanase): ++

Maltopentaose sulfate
ability to retain beta cell viability and induce ROS resistance (in words) (islet beta cells [1]; 50 μg/ml, 2 days culture): induced high beta cell viability and ROS resistance | Resistance to H2O2 (ROS) (islet beta cells [1]; 50 μg/ml, 2 days culture): ++++ | Hpse inhibition (heparanase): +++

COc1ccc(O)c(C(C)(C)C)c1 [BHA, butylated hydroxyanisole]
Alcian blue staining for heparan sulfate of isolated islets (in words) (isolated islets): increased

Heparin
beta cell survival at 5 μg/ml (in words) ([2]; 5 μg/ml, 2 days culture): equally active; also recorded: preserved beta cell survival | protection from culture-induced cell death / beta cell survival (in words) [2, 6]: dramatically enhanced | % dead beta cells in culture (Sytox green) ([2]; heparin 50 μg/ml co-culture, controls 72.5% dead): 5.3% | dead population (Calcein−, PI+) ([3]; control 18%): 1% | Calcein+, PI− population of beta cells (highly viable) ([3]; control 25%): 86% | apoptotic population (Calcein+, PI+) ([3]; control 52%): 6% | % beta cells Calceln − PI− (cell debris) ([3]; n = 3-5/group): 9.75 ± 1.9% | % viable after hydrogen peroxide treatment (islet beta cells [1]; 2 days culture with 50 μg/ml): 95% | % cell death following hydrogen peroxide treatment (islet beta cells [1]; heparin 50 μg/ml co-culture, freshly isolated cells 96.1% cell death): 5.0% | insulin content of islet beta cells, increase over control (islet beta cells [4]): 2 fold | change in the insulin content of cultured beta cells (in words) (islet beta cells [5]): little or no change

Chondroitin sulfate B
Viability (%) [2, 6]: 46% | Resistance to H2O2 (ROS) (islet beta cells [1]; 50 μg/ml, 2 days culture): − | Hpse inhibition (heparanase): −

CNC(=S)NC [DMTU, dimethylthiourea]
Alcian blue staining for heparan sulfate of isolated islets (in words) (isolated islets): increased

Chondroitin sulfate A
Viability (%) [2, 6]: 50% | Resistance to H2O2 (ROS) (islet beta cells [1]; 50 μg/ml, 2 days culture): − | Hpse inhibition (heparanase): ±

Chondroitin sulfate C
Viability (%) [2, 6]: 32% | Resistance to H2O2 (ROS) (islet beta cells [1]; 50 μg/ml, 2 days culture): − | Hpse inhibition (heparanase): −
